From patent US8404708B2, “Dual NK1/NK3 receptor antagonists” (Hoffmann-La Roche Inc., priority 2004, dated 2013)
Like-named read-outs stand apart in the source and are kept apart here.

Tests used:
human NK1 receptor = human NK1 receptor (Homo sapiens, UniProt P25103); test: NK1 receptor binding, [3H]substance P displacement, CHO cell membranes
[1] = biological target: T1, Recombinant human NK3 (hNK3) receptor (Homo sapiens, UniProt P29371); test: NK3 receptor binding, [3H]SR142801 displacement, membrane preparations
T1 construct: expressed in transfected cells
T1 sequence (P29371 1-465): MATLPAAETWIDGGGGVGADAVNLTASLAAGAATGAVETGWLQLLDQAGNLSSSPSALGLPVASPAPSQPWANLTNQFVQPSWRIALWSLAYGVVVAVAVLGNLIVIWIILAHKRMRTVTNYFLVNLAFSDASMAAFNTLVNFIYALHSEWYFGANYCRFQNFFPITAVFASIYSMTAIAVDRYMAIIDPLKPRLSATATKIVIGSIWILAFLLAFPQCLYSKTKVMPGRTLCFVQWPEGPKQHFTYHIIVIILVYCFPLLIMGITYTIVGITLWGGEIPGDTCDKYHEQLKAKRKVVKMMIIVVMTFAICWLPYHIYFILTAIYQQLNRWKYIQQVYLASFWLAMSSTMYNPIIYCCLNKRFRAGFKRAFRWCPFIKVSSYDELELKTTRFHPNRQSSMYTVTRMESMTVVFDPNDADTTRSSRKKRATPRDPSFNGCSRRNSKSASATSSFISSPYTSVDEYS
Method in brief: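 Incubation ran 90 min at room temperature in 50 mM Tris-HCl pH 7.4 with 0.1% BSA, 4 mM MnCl2 and 1 μM phosphoramidon, using about 2.5 μg hNK3 membrane protein per well. Nonspecific binding was defined with 10 μM SB222200, and bound radioactivity was collected on PEI-soaked GF/C filters for scintillation counting.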

[2] = first value of the cell pKi NK1/NK3, human NK1 receptor, [3H]substance P
[3] = second value of the cell pKi NK1/NK3, hNK3 receptor, [3H]SR142801
[4] = first value of the cell NK1/NK3, read-out: pKi NK1 (converted)
[5] = second value of the cell NK1/NK3, read-out: pKi NK3 (converted)

human NK1 receptor, sequence (P25103 whole entry): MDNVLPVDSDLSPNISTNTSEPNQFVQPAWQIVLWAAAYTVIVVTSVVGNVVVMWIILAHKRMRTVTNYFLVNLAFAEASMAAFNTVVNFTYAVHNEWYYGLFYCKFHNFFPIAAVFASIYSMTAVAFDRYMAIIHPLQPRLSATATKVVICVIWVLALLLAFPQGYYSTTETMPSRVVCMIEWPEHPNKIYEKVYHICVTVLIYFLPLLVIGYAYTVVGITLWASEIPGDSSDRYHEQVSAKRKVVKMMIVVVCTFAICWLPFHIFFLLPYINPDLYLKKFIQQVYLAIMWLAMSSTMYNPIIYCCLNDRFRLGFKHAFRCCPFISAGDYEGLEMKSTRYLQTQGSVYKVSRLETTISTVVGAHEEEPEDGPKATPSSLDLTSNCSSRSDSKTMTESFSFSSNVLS

| SMILES | Ki (human NK1 receptor; [2]) | Ki [1, 3] | Ki (human NK1 receptor; [4]) | Ki [1, 5] |
| --- | --- | --- | --- | --- |
| CC(=O)N[C@@H]1CCN(c2cc(-c3ccccc3Cl)c(N(C)C(=O)C(C)(C)c3cc(C(F)(F)F)cc(C(F)(F)F)c3)cn2)C1 [Example 44, (R)-N-[6-(3-Acetylamino-pyrrolidin-1-yl)-4-(2-chloro-phenyl)-pyridin-3-yl]-2-(3,5-bis-trifluoromethyl-phenyl)-N-methyl-isobutyramide] | 0.631 nM | 15.5 nM | – | – |
| Cc1c(F)cccc1-c1cc(N(CCO)CCO)ncc1N(C)C(=O)C(C)(C)c1cc(C(F)(F)F)cc(C(F)(F)F)c1 [Example 127, N-[6-[Bis-(2-hydroxy-ethyl)-amino]-4-(3-fluoro-2-methyl-phenyl)-pyridin-3-yl]-2-(3,5-bis-trifluoromethyl-phenyl)-N-methyl-isobutyramide] | 2.19 nM | 1.51 nM | – | – |
| C[C@@H](CO)Nc1cc(-c2ccccc2Cl)c(N(C)C(=O)C(C)(C)c2cc(C(F)(F)F)cc(C(F)(F)F)c2)cn1 [Example 79, (S)-2-(3,5-Bis-trifluoromethyl-phenyl)-N-[4-(2-chloro-phenyl)-6-(2-hydroxy-1-methyl-ethylamino)-pyridin-3-yl]-N-methyl-isobutyramide] | 1.35 nM | 10.5 nM | – | – |
| Cc1ccccc1-c1cc(N2CC(=O)C[C@H]2CO)ncc1N(C)C(=O)C(C)(C)c1cc(C(F)(F)F)cc(C(F)(F)F)c1 [Example 295, (S)-2-(3,5-Bis-trifluoromethyl-phenyl)-N-[6-(2-hydroxymethyl-4-oxo-pyrrolidin-1-yl)-4-o-tolyl-pyridin-3-yl]-N-methyl-isobutyramide] | – | – | 1.55 nM | 1.66 nM |
| CN(C(=O)C(C)(C)c1cc(C(F)(F)F)cc(C(F)(F)F)c1)c1cnc(N2C[C@@H](O)C[C@H]2CO)cc1-c1ccccc1 [Example 247, (2S,4S)-2-(3,5-Bis-trifluoromethyl-phenyl)-N-[6-(4-hydroxy-2-hydroxymethyl-pyrrolidin-1-yl)-4-phenyl-pyridin-3-yl]-N-methyl-isobutyramide] | – | – | 1.51 nM | 15.8 nM |
| Cc1cc(F)ccc1-c1cc(N[C@H]2CC[C@H](O)CC2)ncc1N(C)C(=O)C(C)(C)c1cc(C(F)(F)F)cc(C(F)(F)F)c1 [Example 92, trans-2-(3,5-Bis-trifluoromethyl-phenyl)-N-[4-(4-fluoro-2-methyl-phenyl)-6-(4-hydroxy-cyclohexylamino)-pyridin-3-yl]-N-methyl-isobutyramide] | 1.02 nM | 21.4 nM | – | – |
| CN(C(=O)C(C)(C)c1cc(Cl)cc(OC(F)F)c1)c1cnc(N2CCC[C@H]2CO)cc1-c1ccccc1Cl [Example 34, (S)-2-(3-Chloro-5-difluoromethoxy-phenyl)-N-[4-(2-chloro-phenyl)-6-(2-hydroxymethyl-pyrrolidin-1-yl)-pyridin-3-yl]-N-methyl-isobutyramide] | 3.89 nM | 0.832 nM | – | – |
| Cc1ccccc1-c1cc(N2C[C@@H](O)C[C@@H]2CO)ncc1N(C)C(=O)C(C)(C)c1cc(C(F)(F)F)cc(C(F)(F)F)c1 [Example 260, (2R,4S)-2-(3,5-Bis-trifluoromethyl-phenyl)-N-[6-(4-hydroxy-2-hydroxymethyl-pyrrolidin-1-yl)-4-o-tolyl-pyridin-3-yl]-N-methyl-isobutyramide] | – | – | 1.41 nM | 17.8 nM |
| CN(C(=O)C(C)(C)c1cc(C(F)(F)F)cc(C(F)(F)F)c1)c1cnc(N2C[C@@H](O)C[C@H]2CO)cc1-c1ccc(F)cc1Cl [Example 235, (2S,4S)-2-(3,5-Bis-trifluoromethyl-phenyl)-N-[4-(2-chloro-4-fluoro-phenyl)-6-(4-hydroxy-2-hydroxymethyl-pyrrolidin-1-yl)-pyridin-3-yl]-N-methyl-isobutyramide] | – | – | 1.66 nM | 1.26 nM |
| CN(C(=O)C(C)(C)c1cc(C(F)(F)F)cc(C(F)(F)F)c1)c1cnc(N2CCC[C@H]2CO)cc1-c1ccccc1Br [Example 281, (S)-2-(3,5-Bis-trifluoromethyl-phenyl)-N-[4-(2-bromo-phenyl)-6-(2-hydroxymethyl-pyrrolidin-1-yl)-pyridin-3-yl]-N-methyl-isobutyramide] | – | – | 3.47 nM | 1.82 nM |
| Cc1ccccc1-c1cc(N2CCC[C@H]2CO)ncc1N(C)C(=O)C(C)(C)c1cc(Cl)cc(Cl)c1 [Example 11, (S)-2-(3,5-Dichloro-phenyl)-N-[6-(2-hydroxymethyl-pyrrolidin-1-yl)-4-o-tolyl-pyridin-3-yl]-N-methyl-isobutyramide] | 1.78 nM | 1.1 nM | – | – |
| CN(C(=O)C(C)(C)c1cc(C(F)(F)F)cc(C(F)(F)F)c1)c1cnc(N2CCC(O)CC2)cc1-c1ccccc1Cl [Example 51, 2-(3,5-bis-trifluoromethyl-phenyl)-N-[4′-(2-chloro-phenyl)-4-hydroxy-3,4,5,6-tetrahydro-2H-[1,2′]bipyridinyl-5′-yl]-N-methyl-isobutyramide] | 0.646 nM | 28.8 nM | – | – |
| CN(C(=O)C(C)(C)c1cc(C(F)(F)F)cc(C(F)(F)F)c1)c1cnc(N2CCC[C@H]2CO)cc1-c1ccccc1Cl [Example 42, (S)-2-(3,5-Bis-trifluoromethyl-phenyl)-N-[4-(2-chloro-phenyl)-6-(2-hydroxymethyl-pyrrolidin-1-yl)-pyridin-3-yl]-N-methyl-isobutyramide] | 1.66 nM | 0.832 nM | – | – |
| Cc1cc(C)cc(C(C)(C)C(=O)N(C)c2cnc(N3C[C@H](O)C[C@H]3CO)cc2-c2ccccc2C)c1 [Example 20, (2S,4R)-2-(3,5-Dimethyl-phenyl)-N-[6-(4-hydroxy-2-hydroxymethyl-pyrrolidin-1-yl)-4-o-tolyl-pyridin-3-yl]-N-methyl-isobutyramide] | 1.15 nM | 6.17 nM | – | – |
| Cc1c(F)cccc1-c1cc(N2C[C@@H](O)C[C@H]2CO)ncc1N(C)C(=O)C(C)(C)c1cc(C(F)(F)F)cc(C(F)(F)F)c1 [Example 249, (2S,4S)-2-(3,5-Bis-trifluoromethyl-phenyl)-N-[4-(3-fluoro-2-methyl-phenyl)-6-(4-hydroxy-2-hydroxymethyl-pyrrolidin-1-yl)-pyridin-3-yl]-N-methyl-isobutyramide] | – | – | 2 nM | 1.02 nM |
| CN(C(=O)C(C)(C)c1cc(C(F)(F)F)cc(C(F)(F)F)c1)c1cnc(N2C[C@@H](O)[C@H](O)C2)cc1-c1ccccc1Cl [Example 49, (3R,4R)-2-(3,5-Bis-trifluoromethyl-phenyl)-N-[4-(2-chloro-phenyl)-6-(3,4-dihydroxy-pyrrolidin-1-yl)-pyridin-3-yl]-N-methyl-isobutyramide] | 0.479 nM | 14.8 nM | – | – |
| CN(C(=O)C(C)(C)c1cc(C(F)(F)F)cc(C(F)(F)F)c1)c1cnc(N(CCO)CCO)cc1-c1ccc(F)cc1 [Example 88, N-[6-[Bis-(2-hydroxy-ethyl)-amino]-4-(4-fluoro-phenyl)-pyridin-3-yl]-2-(3,5-bis-trifluoromethyl-phenyl)-N-methyl-isobutyramide] | 1.35 nM | 9.33 nM | – | – |
| Cc1cc(F)ccc1-c1cc(N(CCO)CCO)ncc1N(C)C(=O)C(C)(C)c1cc(C(F)(F)F)cc(C(F)(F)F)c1 [Example 84, N-[6-[Bis-(2-hydroxy-ethyl)-amino]-4-(4-fluoro-2-methyl-phenyl)-pyridin-3-yl]-2-(3,5-bis-trifluoromethyl-phenyl)-N-methyl-isobutyramide] | 3.39 nM | 1.74 nM | – | – |
